In patent US9333202B2, “Non-retinoid antagonists for treatment of age-related macular degeneration and stargardt disease” (THE TRUSTEES OF COLUMBIA UNIVERSITY IN THE CITY OF NEW YORK, priority 2012, dated 2016):
pIC50: −log10 of the molar value. Entries after “also recorded” stand apart in the source; their conditions may differ.

Each compound was assayed against T1, human RBP4 (Homo sapiens, UniProt P02753) (assay: Scintillation proximity (SPA) RBP4 binding assay). Conditions: not given.
T1 construct: Untagged human RBP4 purified from urine of tubular proteinuria patients; purchased Fitzgerald Industries International; host or cells: human urine (tubular proteinuria patients)
Experimental: Untagged human RBP4 purified from urine of tubular proteinuria patients was purchased from Fitzgerald Industries International. It was biotinylated using the EZ-Link Sulfo-NHS-LC-Biotinylation kit from Pierce following the manufacturer's recommendations. Binding experiments were performed in 96-well plates (OptiPlate, PerkinElmer) in a final assay volume of 100 μl per well in SPA buffer (1×PBS, pH 7.4, 1 mM EDTA, 0.1% BSA, 0.5% CHAPS). The reaction mix contained 10 nM ^3H-Retinol (48.7 Ci/mmol; PerkinElmer), 0.3 mg/well Streptavidin-PVT beads, 50 nM biotinylated RBP4 and a test compound. Nonspecific binding was determined in the presence of 20 μM of unlabeled retinol. The reaction mix was assembled in the dark under dim red light. The plates were sealed with clear tape (TopSeal-A: 96-well microplate, PerkinElmer), wrapped in the aluminum foil, and allowed to equilibrate 6 hours at room temperature followed by overnight incubation at +4° C. Radiocounts were measured using a TopCount NXT counter (Packard Instrument Company).

| Binding to RBP4 in vitro (in words) | SMILES |
| --- | --- |
| bind to RBP4 | O=C(c1c[nH]cn1)N1CCC(c2ccccc2C(F)(F)F)CC1 [Compound 48] |
| bind to RBP4 | CS(=O)(=O)c1ccc(NC(=O)N2CCC(c3ccccc3C(F)(F)F)CC2)c(C(=O)O)c1 [Compound 64] |

Same assay, conditions: 10 nM 3H-retinol, 50 nM biotinylated RBP4; each value one experiment; read-out: IC50 in SPA-based RBP4 binding assay

| pIC50 | SMILES |
| --- | --- |
| 8.25 | O=C(c1c[nH]cn1)N1CCC(c2ccccc2C(F)(F)F)CC1 [Compound 48] |
| 7.30 | CS(=O)(=O)c1ccc(NC(=O)N2CCC(c3ccccc3C(F)(F)F)CC2)c(C(=O)O)c1 [Compound 64] |

The compounds below were run against RBP4-TTR interaction (Homo sapiens, UniProt P02753) (assay: HTRF/TR-FRET assay for retinol-dependent RBP4-TTR interaction (1 μM retinol)). Conditions: not given.
Format: biochemical
Set-up: human RBP4 fragment (amino acids 19-201) was expressed in the Gold(DE3)pLysS E. coli strain; made in house; host or cells: E. coli Gold(DE3)pLysS (Stratagene), pMAL-c4x vector
Source text: Bacterially expressed MBP-RBP4 and untagged TTR were used in this assay. For the use in the TR-FRET assay the maltose binding protein (MBP)-tagged human RBP4 fragment (amino acids 19-201) was expressed in the Gold(DE3)pLysS E. coli strain (Stratagene) using the […] vector. Following cell lysis, recombinant RBP4 was purified from the soluble fraction using the ACTA FPLC system (GE Healthcare) equipped with the 5-ml the MBP Trap HP column. Human untagged TTR was purchased from Calbiochem. Untagged TTR was labeled directly with Eu^3+ Cryptate-NHS using the HTRF Cryptate Labeling kit from CisBio following the manufacturer's recommendations. HTRF assay was performed in white low volume 384 well plates (Greiner-Bio) in a final assay volume of 16 μl per well. The reaction buffer contained 10 mM Tris-HCl pH 7.5, 1 mM DTT, 0.05% NP-40, 0.05% Prionex, 6% glycerol, and 400 mM KF. Each reaction contained 60 nM MBP-RBP4 and 2 nM TTR-Eu along with 26.7 nM of anti-MBP antibody conjugated with d2 (Cisbio). Titration of test compounds in this assay was conducted in the presence of 1 μM retinol. All reactions were assembled in the dark under dim red light and incubated overnight at +4° C. wrapped in aluminum foil. TR-FRET signal was measured in the SpectraMax M5e Multimode Plate Reader (Molecular Device). Fluorescence was excited at 337 nm and two readings per well were taken: Reading 1 for time-gated energy transfer from Eu(K) to d2 (337 nm excitation, 668 nm emission, counting delay 75 microseconds, counting window 100 microseconds) and Reading 2 for Eu(K) time-gated fluorescence (337 nm excitation, 620 nm emission, counting delay 400 microseconds, counting window 400 microseconds). The TR-FRET signal was expressed as the ratio of fluorescence intensity: Flu665/Flu620×10,000.

| SMILES | Antagonism of RBP4-TTR interaction in vitro (in words) |
| --- | --- |
| FC(F)(F)c1cccc(CCN2CCN(c3ncccc3C(F)(F)F)CC2)c1 [Compound 17] | antagonize RBP4-TTR interaction in vitro at biologically significant concentrations |
| FC(F)(F)c1cccc(CCN2CCN(c3ncnc4sc5c(c34)CCC5)CC2)c1 [Compound 20] | antagonize RBP4-TTR interaction in vitro at biologically significant concentrations |
| FC(F)(F)c1cccc(CN2CCN(c3ncnc4sc5c(c34)CCC5)CC2)c1 [Compound 21] | antagonize RBP4-TTR interaction in vitro at biologically significant concentrations |
| O=C(Cc1ccccc1C(F)(F)F)N1CCN(c2ncnc3sc4c(c23)CCC4)CC1 [Compound 22] | antagonize RBP4-TTR interaction in vitro at biologically significant concentrations |
| O=C(c1ccc(C(F)(F)F)cc1F)N1CCC(c2ccccc2C(F)(F)F)CC1 [Compound 32] | antagonize RBP4-TTR interaction in vitro at biologically significant concentrations |
| O=C(c1ccc(C(F)(F)F)c(F)c1)N1CCC(c2ccccc2C(F)(F)F)CC1 [Compound 33] | antagonize RBP4-TTR interaction in vitro at biologically significant concentrations |
| O=C(c1cccc(C(F)(F)F)c1)N1CCC(c2ccccc2C(F)(F)F)CC1 [Compound 34] | antagonize RBP4-TTR interaction in vitro at biologically significant concentrations |
| O=C(c1ccc(F)c(C(F)(F)F)c1)N1CCC(c2ccccc2C(F)(F)F)CC1 [Compound 35] | antagonize RBP4-TTR interaction in vitro at biologically significant concentrations |
| O=C(c1ccc(Cl)c(C(F)(F)F)c1)N1CCC(c2ccccc2C(F)(F)F)CC1 [Compound 36] | antagonize RBP4-TTR interaction in vitro at biologically significant concentrations |
| COC(=O)c1cccc(C(=O)N2CCC(c3ccccc3C(F)(F)F)CC2)c1 [Compound 37] | antagonize RBP4-TTR interaction in vitro at biologically significant concentrations |
| O=C(Cc1ccccc1C(F)(F)F)N1CCC(c2ccccc2C(F)(F)F)CC1 [Compound 38] | antagonize RBP4-TTR interaction in vitro at biologically significant concentrations |
| O=C(c1ccnc(C(F)(F)F)c1)N1CCC(c2ccccc2C(F)(F)F)CC1 [Compound 39] | antagonize RBP4-TTR interaction in vitro at biologically significant concentrations |
| O=C(c1cnccc1C(F)(F)F)N1CCC(c2ccccc2C(F)(F)F)CC1 [Compound 40] | antagonize RBP4-TTR interaction in vitro at biologically significant concentrations |
| O=C(c1cc(C(F)(F)F)ccn1)N1CCC(c2ccccc2C(F)(F)F)CC1 [Compound 41] | antagonize RBP4-TTR interaction in vitro at biologically significant concentrations |
| FC(F)(F)c1ccccc1C1CCN(c2ncccn2)CC1 [Compound 42] | antagonize RBP4-TTR interaction in vitro at biologically significant concentrations |
| Cc1ccnc(N2CCC(c3ccccc3C(F)(F)F)CC2)n1 [Compound 43] | antagonize RBP4-TTR interaction in vitro at biologically significant concentrations |
| FC(F)(F)c1ccnc(N2CCC(c3ccccc3C(F)(F)F)CC2)n1 [Compound 44] | antagonize RBP4-TTR interaction in vitro at biologically significant concentrations |
| COC(=O)c1cc(C)nc(N2CCC(c3ccccc3C(F)(F)F)CC2)n1 [Compound 45] | antagonize RBP4-TTR interaction in vitro at biologically significant concentrations |

| SMILES | Antagonism of RBP4-TTR interaction in vitro (in words) |
| --- | --- |
| FC(F)(F)c1ccccc1C1CCN(c2nccc(-c3ccccc3)n2)CC1 [Compound 46] | antagonize RBP4-TTR interaction in vitro at biologically significant concentrations |
| Fc1cnc(N2CCC(c3ccccc3C(F)(F)F)CC2)nc1 [Compound 47] | antagonize RBP4-TTR interaction in vitro at biologically significant concentrations |
| O=C(c1c[nH]cn1)N1CCC(c2ccccc2C(F)(F)F)CC1 [Compound 48] | antagonize retinol-dependent RBP4-TTR interaction |
| Cn1cnc(C(=O)N2CCC(c3ccccc3C(F)(F)F)CC2)c1 [Compound 49] | antagonize RBP4-TTR interaction in vitro at biologically significant concentrations |
| O=C(c1cn(Cc2ccccc2)cn1)N1CCC(c2ccccc2C(F)(F)F)CC1 [Compound 50] | antagonize RBP4-TTR interaction in vitro at biologically significant concentrations |
| Cn1cncc1C(=O)N1CCC(c2ccccc2C(F)(F)F)CC1 [Compound 51] | antagonize RBP4-TTR interaction in vitro at biologically significant concentrations |
| Cn1nc(C(F)(F)F)cc1C(=O)N1CCC(c2ccccc2C(F)(F)F)CC1 [Compound 52] | antagonize RBP4-TTR interaction in vitro at biologically significant concentrations |
| O=C(c1cc(C(F)(F)F)[nH]n1)N1CCC(c2ccccc2C(F)(F)F)CC1 [Compound 53] | antagonize RBP4-TTR interaction in vitro at biologically significant concentrations |
| O=C(c1nccs1)N1CCC(c2ccccc2C(F)(F)F)CC1 [Compound 54] | antagonize RBP4-TTR interaction in vitro at biologically significant concentrations |
| O=C(c1ccco1)N1CCC(c2ccccc2C(F)(F)F)CC1 [Compound 55] | antagonize RBP4-TTR interaction in vitro at biologically significant concentrations |
| O=C(O)c1cc(-c2ccccc2)ccc1NC(=O)N1CCC(c2ccccc2C(F)(F)F)CC1 [Compound 56] | antagonize RBP4-TTR interaction in vitro at biologically significant concentrations |
| O=C(O)c1cc(-c2ccc(F)cc2)ccc1NC(=O)N1CCC(c2ccccc2C(F)(F)F)CC1 [Compound 57] | antagonize RBP4-TTR interaction in vitro at biologically significant concentrations |
| CS(=O)(=O)c1ccc(-c2ccc(NC(=O)N3CCC(c4ccccc4C(F)(F)F)CC3)c(C(=O)O)c2)cc1 [Compound 58] | antagonize RBP4-TTR interaction in vitro at biologically significant concentrations |
| COC(=O)c1ccccc1NC(=O)N1CCC(c2ccccc2C(F)(F)F)CC1 [Compound 59] | antagonize RBP4-TTR interaction in vitro at biologically significant concentrations |
| COC(=O)c1ccc(Cl)cc1NC(=O)N1CCC(c2ccccc2C(F)(F)F)CC1 [Compound 60] | antagonize RBP4-TTR interaction in vitro at biologically significant concentrations |
| COC(=O)c1cc(Br)ccc1NC(=O)N1CCC(c2ccccc2C(F)(F)F)CC1 [Compound 61] | antagonize RBP4-TTR interaction in vitro at biologically significant concentrations |
| O=C(O)c1ccccc1NC(=O)N1CCN(c2ncncc2C(F)(F)F)CC1 [Compound 63] | antagonize RBP4-TTR interaction in vitro at biologically significant concentrations |
| CS(=O)(=O)c1ccc(NC(=O)N2CCC(c3ccccc3C(F)(F)F)CC2)c(C(=O)O)c1 [Compound 64] | antagonize retinol-dependent RBP4-TTR interaction; also recorded: antagonize RBP4-TTR interaction in vitro at biologically significant concentrations |

Same assay, conditions: in the presence of 1 μM retinol; each value one experiment; read-out: IC50 in HTRF-based retinol-dependent RBP4-TTR interaction assay

| pIC50 | SMILES |
| --- | --- |
| 6.97 | O=C(c1c[nH]cn1)N1CCC(c2ccccc2C(F)(F)F)CC1 [Compound 48] |
| 5.90 | CS(=O)(=O)c1ccc(NC(=O)N2CCC(c3ccccc3C(F)(F)F)CC2)c(C(=O)O)c1 [Compound 64] |
